“And” between values parts separate entries of the source, which are not always exact repeats. Equal entries are not always repeated.
Tests used:
SARS-CoV-2 (B.1) = experiment: Anti-SARS-CoV-2 activity in Vero E6 cells (viral yield by qRT-PCR); assay type: cell-based
Vero E6 cells = experiment: CCK-8 cell viability assay; assay type: cell-based, African green monkey; conditions: individual replicate values, Fig.S4
Method in brief: (§1)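 Vero E6 cells, 20,000/well, exposed to compound at 0–200 μM (0, 0.01, 0.1, 1, 5, 10, 50, 75, 100, 200 μM) for 48 h; viability read by CCK-8 and expressed as percentage versus drug concentration, mean ± SD.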

[1] = CCK-8 cell viability assay; assay type: cell-based, African green monkey; conditions: African green monkey; Vero E6 cells, 48 h, CCK8
Method in brief: as §1

[2] = test system: SARS-CoV-2 (Delta, B.1.617.2); experiment: microbe, parasite or virus in culture; assay type: cell-based; conditions: for % Inhibition: delta
[3] = test system: SARS-CoV-2 (Beta, B.1.351); experiment: microbe, parasite or virus in culture; assay type: cell-based; conditions: for % Inhibition: beta
[4] = test system: SARS-CoV-2 (B.1) in Huh7 cells; experiment: Anti-SARS-CoV-2 activity in Huh7 cells (viral yield by qRT-PCR); assay type: cell-based; conditions: B.1, MOI 0.05, 48 h
[5] = test system: SARS-CoV-2 replicon system (pBAC-SARS-CoV-2-Replicon-Luc); experiment: microbe, parasite or virus in culture; assay type: cell-based; conditions: Severe acute respiratory syndrome coronavirus 2, HEK-293T, 60 h

With `CC(C)CC(=O)OC[C@H]1O[C@@](C#N)(c2ccc3c(N)ncnn23)[C@H](O)[C@@H]1O` [ATV017] the “% Inhibition” value (SARS-CoV-2 (B.1); 0.1 μM, replicates, sheet Fig.S3) was 0%, the “% Inhibition” value (SARS-CoV-2 (B.1); 0.5 μM, replicates, sheet Fig.S3) was 0% and the “% Inhibition” value (SARS-CoV-2 (B.1); 1 μM, replicates, sheet Fig.S3) was 65.5016%. The “% Inhibition” value (SARS-CoV-2 (B.1); 2 μM, replicates, sheet Fig.S3) was 89.9686%, the “% Inhibition” value (SARS-CoV-2 (B.1); 5 μM, replicates, sheet Fig.S3) was 91.0527% and the “% Inhibition” value (SARS-CoV-2 (B.1); 10 μM, replicates, sheet Fig.S3) was 91.8254%. For the same compound, the “% Inhibition” value (SARS-CoV-2 (B.1); B.1, 0.01 uM, Vero E6, replicates) was 0%, the “% Inhibition” value (SARS-CoV-2 (B.1); B.1, 0.1 uM, Vero E6, replicates) was 0% and the “% Inhibition” value (SARS-CoV-2 (B.1); B.1, 0.25 uM, Vero E6, replicates) was 0%. The “% Inhibition” value (SARS-CoV-2 (B.1); B.1, 0.5 uM, Vero E6, replicates) was 0%, the “% Inhibition” value (SARS-CoV-2 (B.1); B.1, 1 uM, Vero E6, replicates) was 0% and the “% Inhibition” value (SARS-CoV-2 (B.1); B.1, 5 uM, Vero E6, replicates, 5 µM) was 99.7611%. For the same compound, the “% Inhibition” value (SARS-CoV-2 (B.1); B.1, 10 uM, Vero E6, replicates, 10 µM) was 99.9908%, the “% Inhibition” value (SARS-CoV-2 (B.1); B.1, 50 uM, Vero E6, replicates, 50 µM) was 99.9887% and the inhibition at 0.1 µM (SARS-CoV-2 (B.1); Severe acute respiratory syndrome coronavirus 2, Vero C1008, 0.1 μM, replicates, sheet Fig.S3) was 0%. For the same compound, the inhibition at 0.5 µM (SARS-CoV-2 (B.1); Severe acute respiratory syndrome coronavirus 2, Vero C1008, 0.5 μM, replicates, sheet Fig.S3) was 0%, the inhibition at 1 µM (SARS-CoV-2 (B.1); Severe acute respiratory syndrome coronavirus 2, Vero C1008, 1 μM, replicates, sheet Fig.S3) was 62.2% and the inhibition at 2 µM (SARS-CoV-2 (B.1); Severe acute respiratory syndrome coronavirus 2, Vero C1008, 2 μM, replicates, sheet Fig.S3) was 89.2%. For the same compound, the inhibition at 5 µM (SARS-CoV-2 (B.1); Severe acute respiratory syndrome coronavirus 2, Vero C1008, 5 μM, replicates, sheet Fig.S3) was 92.3%, the inhibition at 10 µM (SARS-CoV-2 (B.1); Severe acute respiratory syndrome coronavirus 2, Vero C1008, 10 μM, replicates, sheet Fig.S3) was 93.6% and the inhibition at 0.01 µM (SARS-CoV-2 (B.1); Severe acute respiratory syndrome coronavirus 2, Vero C1008, B.1, 0.01 uM, Vero E6, replicates) was 0%. For the same compound, the inhibition at 0.1 µM (SARS-CoV-2 (B.1); Severe acute respiratory syndrome coronavirus 2, Vero C1008, B.1, 0.1 uM, Vero E6, replicates) was 0%, the inhibition at 0.25 µM (SARS-CoV-2 (B.1); Severe acute respiratory syndrome coronavirus 2, Vero C1008, B.1, 0.25 uM, Vero E6, replicates) was 0% and the inhibition at 0.5 µM (SARS-CoV-2 (B.1); Severe acute respiratory syndrome coronavirus 2, Vero C1008, B.1, 0.5 uM, Vero E6, replicates) was 0%. It also gave an inhibition at 1 µM (SARS-CoV-2 (B.1); Severe acute respiratory syndrome coronavirus 2, Vero C1008, B.1, 1 uM, Vero E6, replicates) of 0%, an inhibition at 5 µM (SARS-CoV-2 (B.1); Severe acute respiratory syndrome coronavirus 2, Vero C1008, B.1, 5 uM, Vero E6, replicates) of 99.6% and an inhibition at 10 µM (SARS-CoV-2 (B.1); Severe acute respiratory syndrome coronavirus 2, Vero C1008, B.1, 10 uM, Vero E6, replicates) of 99.9%. It also gave an inhibition at 50 µM (SARS-CoV-2 (B.1); Severe acute respiratory syndrome coronavirus 2, Vero C1008, B.1, 50 uM, Vero E6, replicates) of 99.9%, an EC90 (SARS-CoV-2 (B.1); Severe acute respiratory syndrome coronavirus 2, Vero C1008, read-out: EC90 (Confidence 95%), Vero-E6, B.1) of 2480 nM and an EC50 (SARS-CoV-2 (B.1); Severe acute respiratory syndrome coronavirus 2, Vero C1008, MOI 0.05, 48 h) of 2190 nM. The “cell viability (% of control)” value (Vero E6 cells; 1 μM compound, 1 µM) was 88.7524 % of control and 100.803 % of control and 120.919 % of control, the “cell viability (% of control)” value (Vero E6 cells; 2 μM compound, 2 µM) was 88.0108 % of control and 98.9031 % of control and 128.104 % of control and the “cell viability (% of control)” value (Vero E6 cells; 5 μM compound, 5 µM) was 90.8382 % of control and 109.656 % of control and 135.798 % of control. The “cell viability (% of control)” value (Vero E6 cells; 10 μM compound, 10 µM) was 94.2217 % of control and 115.404 % of control and 120.363 % of control, the “cell viability (% of control)” value (Vero E6 cells; 20 μM compound, 20 µM) was 80.7802 % of control and 92.136 % of control and 131.024 % of control and the “cell viability (% of control)” value (Vero E6 cells; 50 μM compound, 50 µM) was 71.9737 % of control and 85.3225 % of control and 97.3272 % of control. For the same compound, the CC50 at 48 h [1] was over 50000 nM, the EC50 ([2]; Severe acute respiratory syndrome coronavirus 2, Vero C1008, 48 h, read-out: EC50 in Vero E6 cells, SARS-CoV-2 (Delta, B.1.617.2)) was 428 nM and the inhibition at 0.01 µM ([2]; Severe acute respiratory syndrome coronavirus 2, Vero C1008, delta, 0.01 uM, Vero E6, replicates) was 0%. For the same compound, the inhibition at 0.1 µM ([2]; Severe acute respiratory syndrome coronavirus 2, Vero C1008, delta, 0.1 uM, Vero E6, replicates) was 0%, the inhibition at 0.25 µM ([2]; Severe acute respiratory syndrome coronavirus 2, Vero C1008, delta, 0.25 uM, Vero E6, replicates) was 0% and the inhibition at 0.5 µM ([2]; Severe acute respiratory syndrome coronavirus 2, Vero C1008, delta, 0.5 uM, Vero E6, replicates) was 82.8%. For the same compound, the inhibition at 1 µM ([2]; Severe acute respiratory syndrome coronavirus 2, Vero C1008, delta, 1 uM, Vero E6, replicates) was 90.3%, the inhibition at 2 µM ([2]; Severe acute respiratory syndrome coronavirus 2, Vero C1008, delta, 2 uM, Vero E6, replicates) was 94.4% and the inhibition at 5 µM ([2]; Severe acute respiratory syndrome coronavirus 2, Vero C1008, delta, 5 uM, Vero E6, replicates) was 93.9%. For the same compound, the inhibition at 10 µM ([2]; Severe acute respiratory syndrome coronavirus 2, Vero C1008, delta, 10 uM, Vero E6, replicates) was 100%, the EC90 ([2]; Severe acute respiratory syndrome coronavirus 2, Vero C1008, read-out: EC90 (Confidence 95%), Vero-E6, Delta B.1.617.2) was 516 nM and the “% Inhibition” value ([2]; 0.01 uM, Vero E6, replicates) was 0%. The “% Inhibition” value ([2]; 0.1 uM, Vero E6, replicates) was 0%, the “% Inhibition” value ([2]; 0.25 uM, Vero E6, replicates) was 0% and the “% Inhibition” value ([2]; 0.5 uM, Vero E6, replicates) was 80.6558%. For the same compound, the “% Inhibition” value ([2]; 1 uM, Vero E6, replicates) was 88.2825%, the “% Inhibition” value ([2]; 2 uM, Vero E6, replicates) was 91.1914% and the “% Inhibition” value ([2]; 5 uM, Vero E6, replicates) was 90.8502%. For the same compound, the “% Inhibition” value ([2]; 10 uM, Vero E6, replicates) was 99.8554%, the “% Inhibition” value ([2]; 50 uM, Vero E6, replicates) was 99.5879% and the EC50 ([3]; Severe acute respiratory syndrome coronavirus 2, Vero C1008, 48 h, read-out: EC50 in Vero E6 cells, SARS-CoV-2 (Beta, B.1.351)) was 2850 nM. For the same compound, the inhibition at 0.01 µM ([3]; Severe acute respiratory syndrome coronavirus 2, Vero C1008, beta, 0.01 uM, Vero E6, replicates) was 0%, the inhibition at 0.1 µM ([3]; Severe acute respiratory syndrome coronavirus 2, Vero C1008, beta, 0.1 uM, Vero E6, replicates) was 0% and the inhibition at 0.25 µM ([3]; Severe acute respiratory syndrome coronavirus 2, Vero C1008, beta, 0.25 uM, Vero E6, replicates) was 0%. It also gave an inhibition at 0.5 µM ([3]; Severe acute respiratory syndrome coronavirus 2, Vero C1008, beta, 0.5 uM, Vero E6, replicates) of 0%, an inhibition at 1 µM ([3]; Severe acute respiratory syndrome coronavirus 2, Vero C1008, beta, 1 uM, Vero E6, replicates) of 0% and an inhibition at 5 µM ([3]; Severe acute respiratory syndrome coronavirus 2, Vero C1008, beta, 5 uM, Vero E6, replicates) of 99.7%. The inhibition at 10 µM ([3]; Severe acute respiratory syndrome coronavirus 2, Vero C1008, beta, 10 uM, Vero E6, replicates) was 99.9%, the EC90 ([3]; Severe acute respiratory syndrome coronavirus 2, Vero C1008, read-out: EC90 (Confidence 95%), Vero-E6, Beta B.1.351) was 3400 nM and the “% Inhibition” value ([3]; 0.01 uM, Vero E6, replicates) was 0%. For the same compound, the “% Inhibition” value ([3]; 0.1 uM, Vero E6, replicates) was 0%, the “% Inhibition” value ([3]; 0.25 uM, Vero E6, replicates) was 0% and the “% Inhibition” value ([3]; 0.5 uM, Vero E6, replicates) was 0%. For the same compound, the “% Inhibition” value ([3]; 1 uM, Vero E6, replicates) was 0%, the “% Inhibition” value ([3]; 2 uM, Vero E6, replicates) was 6.056% and 0% and the “% Inhibition” value ([3]; 5 uM, Vero E6, replicates) was 99.5481%. For the same compound, the “% Inhibition” value ([3]; 10 uM, Vero E6, replicates) was 99.9499%, the “% Inhibition” value ([3]; 50 uM, Vero E6, replicates) was 99.982% and the EC50 ([4]; Severe acute respiratory syndrome coronavirus 2, Huh-7, read-out: EC50 (Confidence 95%) in Huh7 cells) was 905 nM. For the same compound, the EC90 ([4]; Severe acute respiratory syndrome coronavirus 2, Huh-7, read-out: EC90 (Confidence 95%) in Huh7 cells) was 1170 nM, the EC50 ([5]; read-out: EC50 (Confidence 95%), replicon) was 433 nM and the EC90 ([5]; read-out: EC90 (Confidence 95%), replicon) was 576 nM.

Reference: publication PMC9161374 (Science Translational Medicine, 2022)
